Patent US8765117B2, “Generation of vascularized human heart tissue and uses thereof” (The General Hospital Corporation, priority 2009, dated 2014)
Entries after “also recorded” stand apart in the source; their conditions may differ.

Experiments:
Type in all cases: cell-based
[1] = system: human ISL1-βgeo BAC transgenic cells; experiment: Expansion of hES cell-derived ISL1+ clones on mouse CMC feeders with BIO
Protocol: FIGS. 9A-9B show the expansion and characterization of hES cell-derived ISL1+ cardiac progenitors. FIG. 9A show ISL1+ cells increased by BIO treatment. Day 6 EBs of human ISL1-βgeo BAC transgenic cells were dissociated and cultured on mouse CMC feeders for two days before treated with and without BIO for another five days. Colonies were stained with anti-ISL1 antibody and counted for ISL1+ ones. […] Cells dissociated from day 7 EBs of human ISL1-cre DsRed cells were plated on Wnt3a-secreting feeders, cultured for five days and FACS isolated. Gene expression of DsRed+ cells was compared with DsRed− cells. Bars represent mean±s.d.; n=3.
Canonical Wnt pathways can promote the expansion of Isl1+ cardiac progenitors in the mouse^18-20. […] The inventors then isolated human ISL1-cre DsRed cells from day 7 EBs, which were dissociated and plated on a plastic surface, MEF, Wnt3a-secreting, or L cell feeders.

[2] = system: human Isl1+ primordial progenitors; experiment: Differentiation of human Isl1+ primordial progenitors along vasculargenic lineages into Isl1+/CD31+ cells (FACS with anti-CD31); settings: for increase of human Isl1+/CD31+ (GFP+/CD31+) cells: VEGF D4-D22 or ALK5 inhibitor D7-D22, compared to absence of the agent; for proportion of Isl1−/CD31+ cells: human ES cells
Description: When Isl1+ is expressed in this ES cell line, the cells co-express GFP.

[3] = system: mouse Isl1+ cells; experiment: Vasculargenic commitment of mouse ES cells into mouse Isl1+/CD31+ cells (FACS with anti-CD31); settings: for proportion of Isl1−/CD31+ cells: mouse ES cells; for vasculargenic commitment / differentiation into Isl1+/CD31+ cells (in words): mouse cells

Molecule | ISL1+ cells (in words) ([1]; BIO for five days on mouse CMC feeders) | increase of human ISL1+ clones ([1]; compared to CMC control) | increase of human Isl1+/CD31+ (GFP+/CD31+) cells [2] | increase of human Isl1+/CD31+ (GFP+/CD31+) cells ([2]; listed as ALK5i) [fold] | proportion of Isl1−/CD31+ cells [2] | vasculargenic commitment / differentiation into human Isl1+/CD31+ cells (in words) [2] | vasculargenic commitment / differentiation into human Isl1+/CD31+ cells (in words) ([2]; listed as ALK5i) | overall human Isl1+ (GFP+) population ([2]; prolonged treatment) | proportion of Isl1−/CD31+ cells [3] | vasculargenic commitment / differentiation into Isl1+/CD31+ cells (in words) [3] | vasculargenic commitment / differentiation into Isl1+/CD31+ cells (in words) ([3]; listed as ALK5i) | vessel-like structures in vitro ([2]; VEGF treatment) | vessel-like structures ([3]; Isl1+ (YFP+) cells sorted at D8, cultured with VEGF until D20) | increase of efficiency of differentiation into Isl1+/CD31+ cells ([3]; mouse Isl1+ cells, VEGF about 2 weeks from D4)
O=C1Nc2cc(Br)ccc2/C1=C1/Nc2ccccc2/C1=N\O [BIO, 6-bromoindirubin-3′-oxime] | increased | over 30% |  |  |  |  |  |  |  |  |  |  |  | 
NC(=O)c1ccc(-c2nc(-c3ccc4c(c3)OCO4)c(-c3ccccn3)[nH]2)cc1 [SB431542, 4-[4-(1,3-Benzodioxol-5-yl)-5-(2-pyridinyl)-1H-imidazol-2-yl]-benzamide] |  |  | 4-5 fold | 4 to 5 | increases the proportion of Isl1−/CD31+ cells | increases the efficiency of differentiation | promotes the vasculargenic commitment | reduced the overall human Isl1+ (GFP+) population | increases the proportion of Isl1−/CD31+ cells | increases the efficiency of differentiation | promotes the vasculargenic commitment |  |  | 
VEGF |  |  |  |  | increases the proportion of Isl1−/CD31+ cells | promotes the vasculargenic commitment |  |  | increases the proportion of Isl1−/CD31+ cells | promotes the vasculargenic commitment; also recorded: increases efficiency of differentiation |  | produced vessel-like structures in vitro | demonstrated vessel-like structures | at least 2 fold
